Results published in PubChem BioAssay AID256 (DTP/NCI, 2004).
Values joined by “and” are separate entries in the source; they are usually repeats but may differ in a detail not shown here. Identical values can stand only once. Toxic doses and inconclusive results are not listed. Non-standard residues stand in square brackets, D forms with d. Residues, ends and D or L forms follow the SMILES beside them. ξ: configuration not given here. *: point of attachment. Bz = O=C(c1ccccc1)*; Bn = c1ccc(C*)cc1; ξC = NC(CS)C(=O)O

Tested on: CD2F1 mice, L1210 leukemia ip, survival T/C
Test: NCI In Vivo Anticancer Drug Screen. Data for tumor model L1210 Leukemia (intraperitoneal) in CD2F1 (CDF1) mice
Conditions: higher = longer survival
In short: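 Mice carrying a transplanted tumor received test compound or vehicle alone. The value is the measurement in the treated group divided by that in the vehicle-treated control group.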

[1] = endpoint: mean survival time, dose: 100.0 mg/kg/injection, schedule: Q01DX009 (ip), vehicle: saline with Tween-80
[2] = endpoint: mean survival time, dose: 200.0 mg/kg/injection, schedule: Q01DX009 (ip), vehicle: saline with Tween-80
[3] = endpoint: mean survival time, dose: 75.0 mg/kg/injection, schedule: Q01DX001 (ip), vehicle: saline
[4] = endpoint: mean survival time, dose: 150.0 mg/kg/injection, schedule: Q01DX001 (ip), vehicle: saline
[5] = endpoint: mean survival time, dose: 300.0 mg/kg/injection, schedule: Q01DX001 (ip), vehicle: saline
[6] = endpoint: mean survival time, dose: 50.0 mg/kg/injection, schedule: Q01DX009 (ip), vehicle: saline with Tween-80
[7] = endpoint: mean survival time, dose: 100.0 mg/kg/injection, schedule: Q04DX003 (ip), vehicle: saline with Tween-80
[8] = endpoint: mean survival time, dose: 200.0 mg/kg/injection, schedule: Q04DX003 (ip), vehicle: saline with Tween-80
[9] = endpoint: mean survival time, dose: 25.0 mg/kg/injection, schedule: Q01DX009 (ip), vehicle: saline with Tween-80
[10] = endpoint: mean survival time, dose: 400.0 mg/kg/injection, schedule: Q04DX003 (ip), vehicle: saline with Tween-80
[11] = endpoint: mean survival time, dose: 400.0 mg/kg/injection, schedule: Q01DX009 (ip), vehicle: saline with Tween-80
[12] = endpoint: mean survival time, dose: 100.0 mg/kg/injection, schedule: Q01DX001 (ip), vehicle: saline with Tween-80
[13] = endpoint: mean survival time, dose: 200.0 mg/kg/injection, schedule: Q01DX001 (ip), vehicle: saline with Tween-80
[14] = endpoint: mean survival time, dose: 400.0 mg/kg/injection, schedule: Q01DX001 (ip), vehicle: saline with Tween-80
[15] = endpoint: mean survival time, dose: 100.0 mg/kg/injection, schedule: Q01DX001 (ip), vehicle: saline
[16] = endpoint: mean survival time, dose: 200.0 mg/kg/injection, schedule: Q01DX001 (ip), vehicle: saline
[17] = endpoint: mean survival time, dose: 400.0 mg/kg/injection, schedule: Q01DX001 (ip), vehicle: saline
[18] = endpoint: mean survival time, dose: 100.0 mg/kg/injection, schedule: Q04DX003 (ip), vehicle: saline
[19] = endpoint: mean survival time, dose: 200.0 mg/kg/injection, schedule: Q04DX003 (ip), vehicle: saline
[20] = endpoint: mean survival time, dose: 400.0 mg/kg/injection, schedule: Q04DX003 (ip), vehicle: saline

For `CCN1CCN(CC)C1c1ccccc1`, the T/C [1] was 103 % of control and the T/C [2] was 98 % of control.
With `CN1C2CCC1CC(OC(=O)/C=C/C(=O)OC1CC3CCC(C1)N3C)C2` (configuration not stated) the T/C [3] was 94 % of control, the T/C [4] was 106 % of control and the T/C [5] was 94 % of control.
`Cc1c([O-])[n+](Cc2ccccc2)nn1C` was tested, and the T/C (endpoint: mean survival time, dose: 12.5 mg/kg/injection, schedule: Q01DX009 (ip), vehicle: water) was 97 % of control, the T/C (endpoint: mean survival time, dose: 25.0 mg/kg/injection, schedule: Q01DX009 (ip), vehicle: water) was 98 % of control and the T/C (endpoint: mean survival time, dose: 50.0 mg/kg/injection, schedule: Q01DX009 (ip), vehicle: water) was 95 % of control. The T/C (endpoint: mean survival time, dose: 100.0 mg/kg/injection, schedule: Q01DX009 (ip), vehicle: water) was 97 % of control and the T/C (endpoint: mean survival time, dose: 200.0 mg/kg/injection, schedule: Q01DX009 (ip), vehicle: water) was 93 % of control.
With `O=[N+]([O-])c1ccc(N=Nc2ccc3c(c2)-c2ccccc2C3=P(c2ccccc2)(c2ccccc2)c2ccccc2)cc1` the T/C [6] was 94 % of control, the T/C [1] was 91 % of control and the T/C [7] was 91 % of control. For the same molecule, the T/C [2] was 94 % of control and the T/C [8] was 91 % of control.
For `Fc1ccc2c(c1)C(Br)c1ccccc1-2` (configuration not stated), the T/C (endpoint: mean survival time, dose: 6.25 mg/kg/injection, schedule: Q01DX009 (ip), vehicle: saline with Tween-80) was 96 % of control, the T/C (endpoint: mean survival time, dose: 12.5 mg/kg/injection, schedule: Q01DX009 (ip), vehicle: saline with Tween-80) was 96 % of control and the T/C [9] was 105 % of control. For the same molecule, the T/C [7] was 108 % of control, the T/C [8] was 88 % of control and the T/C [10] was 97 % of control.
In the case of `O=C(Nc1ccccc1Cl)c1ccc([N+](=O)[O-])cc1`, the T/C [1] is reported as 94 % of control, the T/C [7] is reported as 96 % of control and the T/C [2] is reported as 97 % of control. For the same molecule, the T/C [8] was 96 % of control, the T/C [11] was 97 % of control and the T/C [10] was 93 % of control.
With `C1CN(SSN2CCOCC2)CCO1` the T/C [7] was 100 % of control and the T/C [8] was 92 % of control.
`COC(=O)C(CSCc1ccccc1)NC(=O)CNC(=O)c1ccccc1` (configuration not stated) (Bz-Gly-[ξC](Bn)-OMe) was tested, and the T/C [12] was 98 % of control, the T/C [1] was 91 % of control and the T/C [13] was 93 % of control. For the same molecule, the T/C [2] was 94 % of control, the T/C [14] was 97 % of control and the T/C [11] was 91 % of control.
In the case of `CC(=O)c1cccc(N=NN(C)C)c1`, the T/C (endpoint: mean survival time, dose: 46.0 mg/kg/injection, schedule: Q01DX009 (ip), vehicle: Klucel (hydroxypropylcellulose) (HPC)) is reported as 124 % of control, the T/C (endpoint: mean survival time, dose: 69.0 mg/kg/injection, schedule: Q01DX009 (ip), vehicle: Klucel (hydroxypropylcellulose) (HPC)) is reported as 154 % of control and the T/C (endpoint: mean survival time, dose: 158.0 mg/kg/injection, schedule: Q01DX009 (ip), vehicle: Klucel (hydroxypropylcellulose) (HPC)) is reported as 87 % of control and 107 % of control.
`OCCOc1ccc2ccccc2c1-c1c(OCCOc2ccc3ccccc3c2-c2c(OCCO)ccc3ccccc23)ccc2ccccc12` was tested, and the T/C (endpoint: mean survival time, dose: 25.0 mg/kg/injection, schedule: Q01DX001 (ip), vehicle: saline with Tween-80) was 95 % of control, the T/C (endpoint: mean survival time, dose: 50.0 mg/kg/injection, schedule: Q01DX001 (ip), vehicle: saline with Tween-80) was 91 % of control and the T/C [12] was 86 % of control. For the same molecule, the T/C [14] was 86 % of control.
In the case of `N#CC(Cl)(C#N)c1ccc(C(Cl)(C#N)C#N)cc1`, the T/C [9] is reported as 101 % of control, the T/C [6] is reported as 104 % of control and the T/C [1] is reported as 98 % of control and 101 % of control.
For `CS(C)=O.[Cl-].[Cl-].[NH-]CC(O)CN(Cc1ccccc1)CC(O)CN.[Pt]` (configuration not stated), the T/C (endpoint: median survival time, dose: 10.0 mg/kg/injection, schedule: Q04DX003 (ip), vehicle: saline) was 104 % of control, the T/C (endpoint: median survival time, dose: 20.0 mg/kg/injection, schedule: Q04DX003 (ip), vehicle: saline) was 109 % of control and the T/C (endpoint: median survival time, dose: 40.0 mg/kg/injection, schedule: Q04DX003 (ip), vehicle: saline) was 110 % of control. For the same molecule, the T/C (endpoint: median survival time, dose: 80.0 mg/kg/injection, schedule: Q04DX003 (ip), vehicle: saline) was 86 % of control.
For `CCN(CC)c1ccc(NC(=O)c2ccc(C(=O)Nc3ccc(N(CC)CC)cc3)cc2)cc1`, the T/C [15] was 89 % of control, the T/C [16] was 92 % of control and the T/C [17] was 92 % of control.
With `O=C(Nc1cc(Cl)c(Cl)cc1Cl)Nc1cc(Cl)ccc1Oc1ccc(Cl)cc1S(=O)(=O)O` the T/C [12] was 96 % of control and the T/C [13] was 98 % of control.
`CNC(C)C(O)c1ccc(O)cc1` (configuration not stated) was tested, and the T/C (endpoint: mean survival time, dose: 50.0 mg/kg/injection, schedule: Q01DX001 (ip), vehicle: carboxymethylcellulose (CMC)) was 112 % of control, the T/C (endpoint: mean survival time, dose: 100.0 mg/kg/injection, schedule: Q01DX001 (ip), vehicle: carboxymethylcellulose (CMC)) was 108 % of control and the T/C (endpoint: mean survival time, dose: 200.0 mg/kg/injection, schedule: Q01DX001 (ip), vehicle: carboxymethylcellulose (CMC)) was 108 % of control. The T/C (endpoint: mean survival time, dose: 400.0 mg/kg/injection, schedule: Q01DX001 (ip), vehicle: carboxymethylcellulose (CMC)) was 104 % of control.
For `[Cl][Pt+2][Cl].[NH-]CC1(C[NH-])CCCCC1`, the T/C (endpoint: mean survival time, dose: 25.0 mg/kg/injection, schedule: Q04DX003 (ip), vehicle: saline) was 95 % of control.
For `CCCCCC(C)O[Si](C)OCC` (configuration not stated), the T/C [18] was 96 % of control, the T/C [19] was 106 % of control and the T/C [20] was 108 % of control.
`COc1ccc2c(c1)C1(C)CCC(=O)C(C)C1CC2` (configuration not stated) was tested, and the T/C [15] was 94 % of control, the T/C [16] was 96 % of control and the T/C [17] was 96 % of control.
`CN1C(=O)CC(c2ccc(NC(=O)N(CCCl)N=O)cc2)C1=O` (configuration not stated) was tested, and the T/C (endpoint: mean survival time, dose: 12.5 mg/kg/injection, schedule: Q01DX001 (ip), vehicle: distilled water + Tween-80) was 155 % of control and 160 % of control, the T/C (endpoint: mean survival time, dose: 25.0 mg/kg/injection, schedule: Q01DX001 (ip), vehicle: distilled water + Tween-80) was 183 % of control and 196 % of control and the T/C (endpoint: mean survival time, dose: 50.0 mg/kg/injection, schedule: Q01DX001 (ip), vehicle: distilled water + Tween-80) was 95 % of control.
In the case of `CN(C)CCOS(C)(=O)=O`, the T/C [18] is reported as 100 % of control, the T/C [19] is reported as 98 % of control and the T/C [20] is reported as 100 % of control.
`O=C1C=CC(=O)N1CN1CCOCC1` was tested, and the T/C (endpoint: mean survival time, dose: 4.37 mg/kg/injection, schedule: Q01DX009 (ip), vehicle: saline) was 103 % of control, the T/C (endpoint: mean survival time, dose: 8.75 mg/kg/injection, schedule: Q01DX009 (ip), vehicle: saline) was 91 % of control and the T/C (endpoint: mean survival time, dose: 12.5 mg/kg/injection, schedule: Q04DX003 (ip), vehicle: saline) was 95 % of control.
`C[N+](C)(C)C(C1=CCCC1=O)c1ccccc1` (configuration not stated) was tested, and the T/C [3] was 103 % of control, the T/C [4] was 91 % of control and the T/C [5] was 100 % of control.
